Assays:
[1] = Cytotoxicity in human NCI-H460 cells infected with HCoV-OC43 treated for 72 hrs by CPE inhibition assay; format: toxicity, cell-based; conditions: read-out: TC50
[2] = Selectivity index, ratio of TC50 for human NCI-H460 cells infected with HCoV-OC43 to EC50 for HCoV-OC43 infected in human NCI-H460 cells; format: toxicity, cell-based; conditions: read-out: Selectivity Index
[3] = test system: Human coronavirus OC43; assay: Antiviral activity against HCoV-OC43 infected in human NCI-H460 cells treated for 72 hrs by CPE inhibition assay; format: functional, organism-based; conditions: Betacoronavirus 1, NCI-H460, 72 h

With `FC(F)(F)c1cc(Nc2ncnc3cnc(Cl)cc23)cc(C(F)(F)F)c1` the CC50 at 72 h [1] was 1.71 µM, the selectivity ratio [2] was 11.4 and the EC50 [3] was 0.15 µM.

Work on `O=[N+]([O-])c1cnc(Nc2ncnc3ccc(Cl)cc23)nc1` yielded a CC50 at 72 h [1] of 139 µM and an EC50 [3] of over 66.7 µM.

`Clc1ccc(Nc2ncnc3ccc(Cl)cc23)c(Cl)c1` showed a CC50 at 72 h [1] of 15.4 µM and an EC50 [3] of over 7.41 µM.

Work on `COc1ccc2ncnc(Nc3cc(C(F)(F)F)cc(C(F)(F)F)c3)c2c1` yielded a CC50 at 72 h [1] of 96.2 µM and an EC50 [3] of 1.14 µM.

Work on `Fc1cc(Nc2ncnc3ccc(Cl)cc23)cc(C(F)(F)F)c1` yielded a CC50 at 72 h [1] of 5.14 µM, a selectivity ratio [2] of 2.08 and an EC50 [3] of 2.47 µM.

`CCCNc1nc(Nc2cc(C(F)(F)F)cc(C(F)(F)F)c2)c2cc(OCC)ccc2n1` showed a CC50 at 72 h [1] of 6.17 µM, a selectivity ratio [2] of 9 and an EC50 [3] of 0.69 µM.

In the case of `COc1ccc2ncnc(Nc3ccc(F)c(C(F)(F)F)c3)c2c1`, the CC50 at 72 h [1] is reported as 26.7 µM, the selectivity ratio [2] is reported as 18.7 and the EC50 [3] is reported as 1.43 µM.

`COc1ccc2ncnc(Oc3cc(C(F)(F)F)cc(C(F)(F)F)c3)c2c1` gave a CC50 at 72 h [1] of 240 µM, a selectivity ratio [2] of 240 and an EC50 [3] of over 55.6 µM.

With `CCOc1ccc2nc(NCCN3CCN(C)CC3)nc(Nc3cc(C(F)(F)F)cc(C(F)(F)F)c3)c2c1` the CC50 at 72 h [1] was 5.77 µM, the selectivity ratio [2] was 10.9 and the EC50 [3] was 0.53 µM.

In the case of `COc1ccc2ncnc(Nc3cc(F)cc(OC(F)(F)F)c3)c2c1`, the CC50 at 72 h [1] is reported as 289 µM, the selectivity ratio [2] is reported as 28.9 and the EC50 [3] is reported as 9.98 µM.

`CCCOc1ccc2ncnc(Nc3cc(C(F)(F)F)cc(C(F)(F)F)c3)c2c1` gave a CC50 at 72 h [1] of 388 µM, a selectivity ratio [2] of 1050 and an EC50 [3] of 0.37 µM.

Compound `CN(C)c1ccc(Nc2ncnc3ccc(Cl)cc23)cc1Cl` has a CC50 at 72 h [1] of 4.28 µM and an EC50 [3] of over 2.47 µM.

`CCOc1ccc2nc(N3CCC(F)(F)CC3)nc(Nc3cc(C(F)(F)F)cc(C(F)(F)F)c3)c2c1` showed a CC50 at 72 h [1] of 12.8 µM, a selectivity ratio [2] of 2.1 and an EC50 [3] of 6.17 µM.

`O=C(O)c1ccc(Nc2ncnc3ccc(Cl)cc23)c(Cl)c1` showed a CC50 at 72 h [1] of 96.2 µM and an EC50 [3] of over 22.2 µM.

Compound `CN(C)c1ccc(Nc2ncnc3ccc(Cl)cc23)c(Cl)c1` has a CC50 at 72 h [1] of 4.28 µM and an EC50 [3] of over 2.47 µM.

`Clc1ccc2ncnc(Nc3ccccc3Cl)c2c1` showed a CC50 at 72 h [1] of 96.2 µM and an EC50 [3] of over 22.2 µM.

Work on `COc1ccc2ncnc(Nc3cc(F)cc(C#N)c3)c2c1` yielded a CC50 at 72 h [1] of 388 µM, a selectivity ratio [2] of 16.3 and an EC50 [3] of 23.9 µM.

For `FC(F)(F)c1cc(CNc2ncnc3ccc(Cl)cc23)cc(C(F)(F)F)c1`, the CC50 at 72 h [1] was 388 µM and the EC50 [3] was 9.98 µM.

For `FC(F)(F)c1cc(Nc2ncnc3ccccc23)cc(C(F)(F)F)c1`, the CC50 at 72 h [1] was 17.2 µM, the selectivity ratio [2] was 12.1 and the EC50 [3] was 1.43 µM.

`COC(=O)c1cc(Cl)cc(Nc2ncnc3ccc(OC)cc23)c1` gave a CC50 at 72 h [1] of 129 µM, a selectivity ratio [2] of 90.4 and an EC50 [3] of 1.43 µM.

With `O=[N+]([O-])c1ccc(Nc2ncnc3ccc(Cl)cc23)cc1Cl` the CC50 at 72 h [1] was 22.2 µM and the EC50 [3] was over 2.47 µM.

Compound `COc1ccc2ncnc(Nc3cc(Cl)cc(C#N)c3)c2c1` has a CC50 at 72 h [1] of 240 µM, a selectivity ratio [2] of 24.1 and an EC50 [3] of 9.98 µM.

`CCN(CC)CCCC(C)Nc1ncnc2ccc(Cl)cc12` (stereo not drawn) showed a CC50 at 72 h [1] of over 200 µM and an EC50 [3] of over 200 µM.

Work on `Clc1ccc(Nc2ncnc3ccc(Cl)cc23)cc1` yielded a CC50 at 72 h [1] of 12.8 µM and an EC50 [3] of over 7.41 µM.

`CCOC(=O)c1c(/C=C/c2ccccc2)cc(OC)c(CC=C(C)C)c1O` showed a CC50 at 72 h [1] of over 200 µM and an EC50 [3] of 139 µM.

`FC(F)(F)c1cc(Nc2ncnc3ccc(I)cc23)cc(C(F)(F)F)c1` showed a CC50 at 72 h [1] of 7.95 µM, a selectivity ratio [2] of 16.6 and an EC50 [3] of 0.48 µM.

For `CCOc1ccc2nc(NC(C)CCCN(CC)CC)nc(Nc3cc(C(F)(F)F)cc(C(F)(F)F)c3)c2c1` (stereo not drawn), the CC50 at 72 h [1] was 3.56 µM and the EC50 [3] was over 2.06 µM.

`CN1CCN(CCNc2ncnc3ccc(Cl)cc23)CC1` gave a CC50 at 72 h [1] of over 200 µM and an EC50 [3] of over 66.7 µM.

In the case of `N#Cc1ccc(Nc2ncnc3ccc(Cl)cc23)cc1`, the CC50 at 72 h [1] is reported as 28.6 µM and the EC50 [3] is reported as over 7.41 µM.

Work on `N#Cc1ccc(Nc2ncnc3ccc(Cl)cc23)c(Cl)c1` yielded a CC50 at 72 h [1] of 46.2 µM and an EC50 [3] of over 22.2 µM.

`COc1ccc2ncnc(N3CCN(c4cc(C(F)(F)F)cc(C(F)(F)F)c4)C(=O)C3)c2c1` gave a CC50 at 72 h [1] of 240 µM and an EC50 [3] of 6.17 µM.

`Nc1ccc2ncnc(Nc3cc(C(F)(F)F)cc(C(F)(F)F)c3)c2c1` gave a CC50 at 72 h [1] of 10.7 µM, a selectivity ratio [2] of 22.3 and an EC50 [3] of 0.48 µM.

With `FC(F)(F)c1cc(Nc2ncnc3ccc(C(F)(F)F)cc23)cc(C(F)(F)F)c1` the CC50 at 72 h [1] was 4.28 µM, the selectivity ratio [2] was 18.6 and the EC50 [3] was 0.23 µM.

`CCOC(=O)c1ccc(Nc2ncnc3ccc(Cl)cc23)c(Cl)c1` showed a CC50 at 72 h [1] of 32 µM and an EC50 [3] of over 7.41 µM.

`CCOc1ccc2nc(NCC(F)(F)F)nc(Nc3cc(C(F)(F)F)cc(C(F)(F)F)c3)c2c1` showed a CC50 at 72 h [1] of 32.1 µM, a selectivity ratio [2] of 15.6 and an EC50 [3] of 2.06 µM.

Work on `COc1ccc2ncnc(Nc3cccc(C(F)(F)F)c3)c2c1` yielded a CC50 at 72 h [1] of 10.7 µM, a selectivity ratio [2] of 2.5 and an EC50 [3] of 4.28 µM.

`COc1ccc2ncnc(Nc3cc([N+](=O)[O-])cc(C(F)(F)F)c3)c2c1` showed a CC50 at 72 h [1] of 96.2 µM, a selectivity ratio [2] of 140 and an EC50 [3] of 0.69 µM.

Work on `COC(=O)c1cc(Nc2ncnc3ccc(OC)cc23)cc(C(=O)OC)c1` yielded a CC50 at 72 h [1] of 240 µM, a selectivity ratio [2] of 4.3 and an EC50 [3] of 55.6 µM.

`COc1ccc2ncnc(Nc3cc(Cl)cc(C(F)(F)F)c3)c2c1` showed a CC50 at 72 h [1] of 129 µM, a selectivity ratio [2] of 90.4 and an EC50 [3] of 1.43 µM.

With `FC(F)(F)c1cc(Nc2ncnc3ccc(Cl)cc23)cc(C(F)(F)F)c1` the CC50 at 72 h [1] was 1.71 µM, the selectivity ratio [2] was 10.8 and the EC50 [3] was 0.16 µM.

In the case of `NC(=O)c1ncn([C@@H]2O[C@H](CO)[C@@H](O)[C@H]2O)n1` [RIBAVIRIN], the CC50 at 72 h [1] is reported as 409 µM, the selectivity ratio [2] is reported as 5.2 and the EC50 [3] is reported as 78.8 µM.

Work on `COc1cc(/C=C/c2ccc(F)cc2)c(C(=O)O)c(O)c1CC=C(C)C` yielded a CC50 at 72 h [1] of 38.5 µM and an EC50 [3] of 12.8 µM.

For `CCOc1ccc2nc(NCc3cccs3)nc(Nc3cc(C(F)(F)F)cc(C(F)(F)F)c3)c2c1`, the CC50 at 72 h [1] was 10.7 µM, the selectivity ratio [2] was 3.6 and the EC50 [3] was 2.97 µM.

`O=[N+]([O-])c1ccc(Nc2ncnc3ccc(Cl)cc23)cc1` showed a CC50 at 72 h [1] of 46.2 µM and an EC50 [3] of over 7.41 µM.

`CC/C=C/c1cc(OC)c(CC=C(C)C)c(O)c1C(=O)O` showed a CC50 at 72 h [1] of 46.2 µM and an EC50 [3] of over 22.2 µM.

In the case of `O=[N+]([O-])c1ccc(CNc2ncnc3ccc(Cl)cc23)cc1`, the CC50 at 72 h [1] is reported as 167 µM and the EC50 [3] is reported as 55.6 µM.

With `Clc1ccc2ncnc(NCCN3CCOCC3)c2c1` the CC50 at 72 h [1] was over 200 µM and the EC50 [3] was 155 µM.

Work on `CCOc1ccc2nc(NC3CCCC3)nc(Nc3cc(C(F)(F)F)cc(C(F)(F)F)c3)c2c1` yielded a CC50 at 72 h [1] of 12.8 µM and an EC50 [3] of over 6.17 µM.

Compound `COc1ccc2ncnc(Nc3cccc(C#N)c3)c2c1` has a CC50 at 72 h [1] of 388 µM and an EC50 [3] of over 55.6 µM.

`COc1ccc2ncnc(Nc3cc(C(F)(F)F)ccc3F)c2c1` gave a CC50 at 72 h [1] of 15.4 µM and an EC50 [3] of over 6.17 µM.

With `COc1ccc(Nc2ncnc3ccc(Cl)cc23)cc1` the CC50 at 72 h [1] was 12.8 µM and the EC50 [3] was over 7.41 µM.

`COC(=O)c1cc(F)cc(Nc2ncnc3ccc(OC)cc23)c1` gave a CC50 at 72 h [1] of 388 µM and an EC50 [3] of over 55.6 µM.

For `Fc1ccc(Nc2ncnc3ccc(Cl)cc23)cc1`, the CC50 at 72 h [1] was 15.4 µM and the EC50 [3] was over 7.41 µM.

In the case of `Cc1ccc(Nc2ncnc3ccc(Cl)cc23)c(Cl)c1`, the CC50 at 72 h [1] is reported as 28.6 µM and the EC50 [3] is reported as over 7.41 µM.

For `COc1cc(/C=C/c2ccccc2)c(C(=O)O)c(O)c1CC=C(C)C`, the CC50 at 72 h [1] was 38.5 µM and the EC50 [3] was 22.2 µM.

With `CCOC(=O)c1ccc(Nc2ncnc3ccc(Cl)cc23)cc1` the CC50 at 72 h [1] was 38.5 µM and the EC50 [3] was over 7.41 µM.

`Clc1ccc2ncnc(Nc3ccc(Br)cc3)c2c1` gave a CC50 at 72 h [1] of 5.14 µM and an EC50 [3] of over 2.47 µM.

From ChEMBL document CHEMBL5634129, “Design, synthesis, and structure-activity relationships of a novel class of quinazoline derivatives as coronavirus inhibitors” (Eur J Med Chem, 2023)
